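96-well plates; 48 h exposure; 5 concentrations. Endpoints by linear interpolation between flanking doses. Not reached: highest tested concentration assigned. Abbreviation: GI50, concentration required for 50% inhibition of growth.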 Calls of active or inactive are those of the source. Cut-off read from the data, not from the text of the source: active = GI50 up to about 1.1 µM and inactive = higher.
What was measured:
Assay in all cases: inhibition of tumour cell growth, NCI panel, 48 h
MDA-MB-435 = test system: MDA-MB-435
PC-3 = test system: PC-3
MDA-MB-231 = test system: MDA-MB-231
BT-549 = test system: BT-549
Hs-578T = test system: Hs-578T
HOP-18 = test system: HOP-18
DLD-1 = test system: DLD-1
M19-MEL = test system: M19-MEL

Structure (SMILES)	GI50 (MDA-MB-435)	GI50 (PC-3)	GI50 (MDA-MB-231)	GI50 (BT-549)	GI50 (Hs-578T)	GI50 (HOP-18)	GI50 (DLD-1)	GI50 (M19-MEL)
COc1cc(CO)c(CC(=O)NCCCc2ccccc2)cc1OC	56 µM (inactive)	> 100 µM (inactive)	> 100 µM (inactive)	> 100 µM (inactive)	> 100 µM (inactive)			
CSC(=N)N1N=C2/C(=C/c3ccccc3)CCC[C@H]2[C@H]1c1ccccc1						1.07 µM (active)	3.48 µM (inactive)	
S=C(S)N1CCN(c2ccccc2)CC1	> 100 µM (inactive)	> 100 µM (inactive)	> 100 µM (inactive)	> 100 µM (inactive)	> 100 µM (inactive)			
O=C(O)C1(Cc2ccc3c(c2)CCC3)Cc2cc3c(cc2C1)CCC3	> 100 µM (inactive)	> 100 µM (inactive)		> 100 µM (inactive)	> 100 µM (inactive)			
COC(=O)c1ccc(NC(=O)c2cc(OC)c(OC)c(OC)c2)cc1						49.4 µM (inactive)	4.69 µM (inactive)	1.04 µM (active)
O=c1[nH]nc(-c2ccccc2)n1/N=C/c1ccccc1Cl	19.1 µM (inactive)	15.1 µM (inactive)	> 100 µM (inactive)	37.1 µM (inactive)	16.2 µM (inactive)			
CCCc1cc(=O)oc2c3c(c4c(c12)OC(C)(C)CC4)O[C@@H](C)[C@H](C)[C@H]3O	5.94 µM (inactive)	4.23 µM (inactive)	2.16 µM (inactive)	5.06 µM (inactive)	15.8 µM (inactive)			
CC(C)Oc1cccc(N2C(n3ccnc3)=Nc3ccncc3S2(=O)=O)c1	11.9 µM (inactive)	10.8 µM (inactive)		15.5 µM (inactive)	19 µM (inactive)			
CNc1ccc2c(c1)[C@@]1(C)c3ccccc3[C@@H](C2)N1C	19.1 µM (inactive)	29.9 µM (inactive)	23.2 µM (inactive)	17.6 µM (inactive)	29.7 µM (inactive)			
CCN(CCO)C(=O)C1(c2ccccc2)CCCCC1	> 10 µM (inactive)	> 10 µM (inactive)	> 10 µM (inactive)		> 10 µM (inactive)			
C=Cc1cnc([N+](=O)[O-])n1C	60.8 µM (inactive)	40.8 µM (inactive)	> 100 µM (inactive)	46.3 µM (inactive)	35.7 µM (inactive)			
CSc1nc2nc(C)c(C)nc2c(=O)[nH]1						> 100 µM (inactive)	> 100 µM (inactive)	> 100 µM (inactive)
CCOC(=O)CC[C@H](NC(=O)c1nc[nH]c1/N=N/N(C)C)C(=O)OCC							> 100 µM (inactive)	> 100 µM (inactive)
S=C(Cc1ccc2c(c1)Sc1ccccc1O2)N1CCOCC1	29.4 µM (inactive)	28.3 µM (inactive)	58.7 µM (inactive)		21.1 µM (inactive)			
CN(C)Cc1cc(/N=N/c2ccc(Cl)cc2)ccc1OC(=O)c1ccccc1	15.7 µM (inactive)	15.6 µM (inactive)	14.1 µM (inactive)	22.1 µM (inactive)	16.4 µM (inactive)			
CCOC(=O)c1csc(NC(=O)CCN2CCCCC2)n1	> 100 µM (inactive)	> 100 µM (inactive)	> 100 µM (inactive)					
C=C1COC(/C=C(\C)CC/C=C(\C)CCl)C1 (stereo not given)							> 100 µM (inactive)	> 100 µM (inactive)
Cc1nc2n(c1/C=C1/C(=O)Nc3cccc(Cl)c31)CCS2	33.5 µM (inactive)	38 µM (inactive)	18.7 µM (inactive)	25.1 µM (inactive)	22 µM (inactive)			
CCCCCCCC(=O)OCC1OC(n2cc(F)c(=O)[nH]c2=O)C(NC(=O)OCc2ccccc2)C(OC(=O)CCCCCCC)C1O (stereo not given)								23.6 µM (inactive)
O=P1(O)c2ccccc2CS(=O)(=O)Cc2ccccc21	> 100 µM (inactive)	> 100 µM (inactive)	> 100 µM (inactive)	> 100 µM (inactive)	> 100 µM (inactive)			
COc1ccc2c(c1)OCCC1=C2SCC2(C)CCN=C12 (stereo not given)						48.3 µM (inactive)	> 100 µM (inactive)	
O=C1CCC2COc3ccc(O)c1c32 (stereo not given)						> 100 µM (inactive)		> 100 µM (inactive)
COc1ccc(C(C2C(=O)N(C)C(=O)N(C)C2=O)C(F)(F)C(=O)N(C)C)cc1 (stereo not given)	> 100 µM (inactive)	> 100 µM (inactive)	> 100 µM (inactive)	> 100 µM (inactive)				
BrP(NC1CCCCCC1)(c1ccccc1)(c1ccccc1)c1ccccc1	2.15 µM (inactive)	1.56 µM (inactive)	3.56 µM (inactive)	3.26 µM (inactive)	3 µM (inactive)			
C(=C\Nc1ccc(Oc2ccccc2)cc1)/C=N/c1ccc(Oc2ccccc2)cc1	17.4 µM (inactive)	15.1 µM (inactive)	17.1 µM (inactive)	15.9 µM (inactive)	19.9 µM (inactive)			
COc1ccc(-c2csc3c2[N+]2(C)C=CC=C2C3N2CCCC2)cc1 (stereo not given)	3.13 µM (inactive)	23 µM (inactive)	94 µM (inactive)	8.2 µM (inactive)	15.7 µM (inactive)			

From ChEMBL document CHEMBL1201862, “PubChem BioAssay data set” (2004)
